Experimental data reported in patent US8685929B2, “Detecting CYP24 expression level as a marker for predisposition to cancer” (The Regents of the University of California, priority 1999, dated 2014).

Columns and labels:
[1] = test system: CYP24 gene expression in MCF7 breast cancer cells; assay: RT-PCR of CYP24 gene expression in MCF7 breast cancer cells with induction by 1,25-dihydroxyvitamin D3; format: cell-based, human; conditions: MCF7 cells incubated with 10^-8M 1,25-dihydroxyvitamin D3 vs vehicle control (ethanol); FIG. 3A
Method: (§1) FIG. 3 illustrates expression of CYP24, VDR and ZNF217 genes in human breast cancer cell lines and tumors with and without induction by 1,25-dihydroxyvitamin D3 evaluated by RT-PCR. (a) Time course of induction of CYP24 gene expression in MCF7 breast cancer cells incubated with 10^−8M 1,25-dihydroxyvitamin D3 and vehicle control (ethanol, EtOH). (b) Gene expression in two breast cancer tumors, S21 and S59. (c) Gene expression in the BT474 cell line. Cells were incubated with 10^−8M 1,25-dihydroxyvitamin D3, as described in (a).
(§2) Previously, CYP24 had been discounted as a candidate oncogene because it was not found to be transcribed in the breast cancer cell line, BT474 (Collins et al. (1998) Proc. Natl. Acad. Sci. USA 95: 8703-8708). However, re-evaluation of expression of CYP24 in cell lines and tumors was warranted because of its position at the peak of the copy number profile and because of the existing knowledge of its function. Therefore we examined expression levels of CYP24 and the vitamin D receptor (VDR), which controls CYP24 expression by RT-PCR using the primers listed in Table 1. […] Furthermore, expression of CYP24 and VDR was detected in two breast tumors S21 and S59 (FIG. 3B). […] Only low level expression of VDR was found in this cell line, most likely accounting for the failure to detect expression of CYP24 in BT474 without addition of 1,25-dihydroxyvitamin-D3. […]

[2] = test system: CYP24 gene expression in BT474 cell line; assay: RT-PCR of CYP24 gene expression in the BT474 cell line with induction by 1,25-dihydroxyvitamin D3; format: cell-based, human; conditions: BT474 cells, 10^-8M 1,25-dihydroxyvitamin D3 added to the culture medium; FIG. 3C
Method: as §1, §2

**Q.** Which results are given for `C=C1/C(=C\C=C2/CCC[C@]3(C)[C@@H]([C@H](C)CCCC(C)(C)O)CC[C@@H]23)C[C@@H](O)C[C@@H]1O` [1,25-dihydroxyvitamin-D3]?
**A.** expression of CYP24 (RT-PCR) [1]: higher levels of expression of CYP24 were induced; expression of CYP24 (RT-PCR) [2]: CYP24 expression was not detected without addition of 1,25-dihydroxyvitamin-D3
